According to patent publication US20060223811A1, “Triglycerine depressant composition” (priority 2000, published 2006):

Test system: blood triglyceride levels
Assay: Assay of blood triglyceride levels in dogs after 11 days of oral capsule administration (GK-GPO-POD method)
Conditions: serum, relative ratio against averaged pre-dosing level (100), oral capsule once daily, mean of 5 dogs
[1] = Table 9, pravastatin 2 mg/kg, pantethine 300 mg/kg
[2] = Table 11, pravastatin 2, riboflavin butyrate 6, d-α-tocopherol acetate 150, ascorbic acid 500 mg/kg
[3] = Table 12, pravastatin 2, d-α-tocopherol acetate 10, ascorbic acid 50 mg/kg

Description: Beagle dogs aged 5 months were purchased from Covance Research Products Inc. and used after 1 month of quarantine and acclimatisation breeding.
(3) Preparation Forms for Administration, Methods of Preparing the Formulation, and Method of Stocking the Formulation
The calculated amounts of pravastatin or each component of the compositions based on the body weight of each dog were weighed and filled in a gelatin capsule (½ ounce) purchased from TORPAC Inc. Capsules filled with pravastatin were stocked in a refrigerator and, those filled with combination drugs stocked at room temperature until use.
The combination drugs were filled in identical gelatin capsules.
(4) Route of Administration and Administration Period
Pravastatin or combination drug capsules were forcibly orally administered to each of the test animals once daily between 9:00 and 12:30. Animals were fasted for 2 or 3 hr prior to administration of the capsules.
The administration period was 11 successive days.
(5) Preparation of Test Samples and Procedures
Blood (10 mL) was collected from the superficial radial vein 14 and 7 days prior to capsule administration (2 and 1 weeks prior to administration) and 4, 8, and 12 days after administration of the capsule. Animals were fasted for approximately 18 hr prior to blood collection. Collected blood was placed in a test tube, left at room temperature for 0.5-1 hr, before being centrifuged (3,000 rpm for 10 min). The obtained serum was used for assays of blood triglyceride levels according to GK-GPO-POD methods.
A full automatic analyzer (Monarch, Instrumentation Laboratory, Inc.) was used for assay of triglycerides.
The averaged value in each group was obtained from 5 animals per group.

CC[C@H](C)C(=O)O[C@H]1C[C@H](O)C=C2C=C[C@H](C)[C@H](CC[C@@H](O)C[C@@H](O)CC(=O)O)[C@H]21 [Pravastatin alone, (+)−(3R, 5R)-3,5-dihydroxy-7-[(1S, 2S,6S,8S,8aR)-6-hydroxy-2-methyl-8-[(S)-2-methylbutyryloxy]-1,2,6,7,8,8a-hexahydro-1-naphthyl]heptanoic acid]
91.1: Blood Triglyceride Levels after administration, 12 days [1] | Blood Triglyceride Levels after administration, 12 days [2] | Blood Triglyceride Levels after administration, 12 days [3]
108.9: Blood Triglyceride Levels after administration, 4 days [1] | Blood Triglyceride Levels after administration, 4 days [2] | Blood Triglyceride Levels after administration, 4 days [3]
104.0: Blood Triglyceride Levels after administration, 8 days [1] | Blood Triglyceride Levels after administration, 8 days [2] | Blood Triglyceride Levels after administration, 8 days [3]
